Consider five compounds from patent US11447504B2, “Macrocyclic chlorine substituted indole derivatives” (Bayer Aktiengesellschaft, priority 2017, dated 2022).

One data set deals with MCL-1 (Homo sapiens (Human), UniProt Q07820, K194A/K197A/R201A). The data set is described as follows: Protein-protein interaction assay MCL-1/Noxa BH3 peptide (MCL-1 Assay, TR-FRET). It is filed as binding. As to conditions: read-out: MCL-1 Assay IC50 (median). As to the method: The dose-dependent inhibition by the compounds described in this invention of the interaction between MCL-1 and the BH3 domain of Noxa (both human) was determined using a steady state binding competition assay with time-resolved fluorescence energy transfer (TR-FRET) readout. […] The MBP-MCL-1 was purchased from Beryllium (Bedford, Mass., USA). The expression and purification of this protein construct has been described elsewhere (DOI:10.1371/journal.pone.0125010). The Noxa BH3-derived peptide can be obtained from e.g. Biosyntan (Berlin, Germany).
Chain of MCL-1 (Q07820 whole entry K194A/K197A/R201A, looked up, the tested form may be a part): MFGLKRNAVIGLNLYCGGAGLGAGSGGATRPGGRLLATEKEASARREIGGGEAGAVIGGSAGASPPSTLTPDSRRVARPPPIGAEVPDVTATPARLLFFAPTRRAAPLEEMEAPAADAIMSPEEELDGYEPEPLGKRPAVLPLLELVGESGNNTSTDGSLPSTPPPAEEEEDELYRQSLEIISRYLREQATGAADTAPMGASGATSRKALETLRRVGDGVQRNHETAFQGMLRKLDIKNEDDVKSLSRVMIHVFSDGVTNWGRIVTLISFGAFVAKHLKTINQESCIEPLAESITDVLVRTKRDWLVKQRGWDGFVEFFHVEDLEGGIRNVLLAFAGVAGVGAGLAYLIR
For that, 100-fold concentrated DMSO solutions were prepared by serial dilutions (1:3.4) of a 2 mM stock solution in a clear, 384-well microtiter plate (Greiner Bio-One, Frickenhausen, Germany). From there, 50 nl were transferred in a dark test plate (Greiner Bio-One, Frickenhausen, Germany). […] This was followed by a 10-minute incubation step at 22° C. for pre-equilibration of the putative complex between MBP-MCL-1 and the compounds.
The mixture was incubated in the dark for one hour at 22° C. and then overnight at 4° C.
The resulting data (ratio) were normalized, taking 0% inhibition as the mean value of control measurements (usually 32 data points) where all reagents were included. In this case 50 nl DMSO were used instead of compounds. […] IC50 values were determined by regression analysis based on a 4 parameter equation (minimum, maximum, IC50, Hill; Y=Max+(Min−Max)/(1+(X/IC50)^Hill) using the Screener Software (Genedata).
Background: Time-resolved FRET reads energy transfer from a long-lived donor to a nearby acceptor.

Data set [1] has as its system SUDHL10. The data set is described as follows: Induction of cytotoxicity (Assay 6), SUDHL10.
The subject of data set [2] is SUDHL5. The data set is described as follows: Induction of cytotoxicity (Assay 6), SUDHL5.
Another data set concerns AMO-1. The data set is described as follows: Antiproliferation assay 7, AMO-1. Type of data set: cell-based. The conditions noted are these: AMO-1 cells, CellTiter-Glo, read-out: Antiproli AMO-1 IC50 median. In a few lines:
(§1)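 Proliferation was read by CellTiter-Glo luminescence after 72 hours of compound treatment at 37° C. The read was referenced to a parallel plate measured at time zero.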
(ATP-based viability assays read luminescence as a measure of living cells.)

The test system of data set [3] is SUDHL5. The data set is described as follows: Induction of caspase-3/7 activity (Assay 4), SUDHL5. Type of data set: cell-based. The conditions noted are these: SUDHL5 cells. In a few lines:
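DLBCL cells treated with compounds for 3 hours at 37° C. Caspase-3/7 activity measured by Caspase-Glo 3/7 luminescence, with medium-only background subtracted.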

Data set [4] concerns SUDHL10. The data set is described as follows: Induction of caspase-3/7 activity (Assay 4), SUDHL10. It is filed as cell-based. The conditions noted are these: SUDHL10 cells. In a few lines: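 Luminescent Caspase-Glo 3/7 read-out after a 3 h, 37 °C compound exposure of the DLBCL line SUDHL10. Values are background-corrected using medium-only wells.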
The test system of data set [5] is SUDHL5. The data set is described as follows: Antiproliferation assay 7, SUDHL5. It is filed as cell-based. As to conditions: SUDHL5 cells, CellTiter-Glo, read-out: Antiproli SUDHL5 IC50 (median). In a few lines:
as §1

A further data set relates to MV-4-11. The data set is described as follows: Antiproliferation assay 7, MV-4-11. The conditions noted are these: MV-4-11 cells, CellTiter-Glo, read-out: Antiproli MV-4-11 IC50 median. It is filed as cell-based. The procedure, abridged:
as §1

A further data set relates to HMC-1-8. The data set is described as follows: Antiproliferation assay 7, HMC-1-8. It is filed as cell-based. As to conditions: 72 h, HMC-1-8 cells, CellTiter-Glo, read-out: Antiproli HMC-1-8 IC50 median. As to the method:
Assessment of the Anti-Proliferative Effect of Compounds in Different Cell Lines
The impact of compounds on the proliferation of different cell lines was assessed using the CellTiter-Glo® Luminescent Cell Viability reagent from Promega (G7573).
In parallel, cells were plated in a reference (day 0) plate for time zero determination.
Rim wells were excluded. The cells were incubated for 72 hours in a humidified incubator at 37° C. The day 0 plate was measured by adding 30 μL/well of CTG solution (CellTiter-Glo® Luminescent Cell Viability reagent, Promega G7573) to time zero wells in the reference plate followed by a 10 minutes incubation and luminescence reading at 0.1 ms. using the PHERAstar FS microplate reader (BMG Labtech).
After 72 hours incubation, the treated plates were measured in the same way as the day 0 plate mentioned above.

[6] abbreviates: read-out: Cytotox SUDHL10 IC50 (median), SUDHL10 cells, 5 hours, CellTiter-Glo.
Where [7] appears, read: read-out: Cytotox SUDHL5 IC50 (median), SUDHL5 cells, 5 hours, CellTiter-Glo.
The mark [8] stands for this setting: 3 hours, Caspase-Glo 3/7, read-out: Caspase SUDHL5 EC50 (median).
[9] abbreviates: 3 hours, Caspase-Glo 3/7, read-out: Caspase SUDHL10 EC50 (median).
[10] abbreviates: Homo sapiens, SU-DHL10, 5 h, read-out: Cytotox SUDHL10 IC50 (median), SUDHL10 cells, 5 hours, CellTiter-Glo.
[11] abbreviates: Homo sapiens, SU-DHL-5, 5 h, read-out: Cytotox SUDHL5 IC50 (median), SUDHL5 cells, 5 hours, CellTiter-Glo.
The mark [12] stands for this setting: Homo sapiens, SU-DHL-5, 3 h, Caspase-Glo 3/7, read-out: Caspase SUDHL5 EC50 (median).
[13] abbreviates: Homo sapiens, SU-DHL10, 3 h, Caspase-Glo 3/7, read-out: Caspase SUDHL10 EC50 (median).

Each structure is given as a SMILES string. Counter-ions that a name gives are not always drawn. Like-named read-outs stand apart in the source and are kept apart here.

Take `Cc1c2c(nn1C)COCC1CC1Cn1c(C(=O)O)c(CCCOc3cccc4ccccc34)c3ccc(Cl)c-2c31` (single isomer, unassigned; stereoisomer 2) [Example 66, (9aR,10aS or 9aS, 10aR)-3-chloro-4,5-dimethyl-14-{3-[(naphthalen-1-yl)oxy]propyl}-5,7,9a, 10,10a, 11-hexahydro-9H-cyclopropa[3,4]pyrazolo[4′,3′:9,10][1,6]oxazacycloundecino-[8,7,6-hi]indole-13-carboxylic Acid—Stereoisomer 2]: the IC50 at MCL-1 was 1.7 nM; in the data set on SUDHL10 [1] (setting [6]), 1400 nM; in the data set on SUDHL5 [2] (setting [7]) it was 910 nM; in the data set with AMO-1 (72 hours) it was 1520 nM. Besides, the EC50 in the data set on SUDHL5 [3] (setting [8]) came out at 550 nM; with SUDHL10 [4] (setting [9]), 3500 nM.

As to `Cc1c2c(nn1C)CN(C)CCCCn1c(C(=O)O)c(CCCOc3cccc4cc(F)ccc34)c3ccc(Cl)c-2c31` (single isomer, unassigned; enantiomer 2) [Example 32, (−)-4-chloro-7-{3-[(6-fluoronaphthalen-1-yl)oxy]propyl}-2,3,14-trimethyl-10,11,12,13,14,15-hexahydro-2H-pyrazolo[3′,4′:8,9][1,6]diazacycloundecino[10,11,1-hi]indole-8-carboxylic acid-N-ethylethanamine Salt (Enantiomer 2)], the IC50 turned out to be 26 nM on MCL-1; 14000 nM with SUDHL10 [1] (setting [6]); 6000 nM with SUDHL5 [5] (72 hours); 9300 nM in the data set on SUDHL5 [2] (setting [7]); 14000 nM in the data set with MV-4-11 (72 hours); 19600 nM in the data set on AMO-1 (72 hours). Also, the EC50 on SUDHL5 [3] (setting [8]) is 11000 nM; at SUDHL10 [4] (setting [9]), 25000 nM.

For the compound `Cc1c2c(nn1CCCN1CCN(C)CC1)COCCCCn1c(C(=O)O)c(CCCOc3cccc4ccccc34)c3ccc(Cl)c-2c31` (racemic) [Example 48, (rac)-4-chloro-3-methyl-2-[3-(4-methylpiperazin-1-yl)propyl]-7-{3-[(naphthalen-1-yl)oxy]propyl}-2,10,11,12,13,15-hexahydropyrazolo[4′,3′:9,10][1,6]oxazacycloundecino[8,7,6-hi]indole-8-carboxylic Acid], the IC50 on MCL-1 amounted to 1.7 nM; in the data set on SUDHL10 [1] (setting [10]) it was 1000 nM; in the data set with SUDHL5 [5] (Homo sapiens, SU-DHL-5, 72 h), 570 nM; in the data set with SUDHL5 [2] (setting [11]) it was 590 nM; with MV-4-11 (Homo sapiens, MV4-11, 72 h), 918 nM; with AMO-1 (Homo sapiens, AMO1, 72 h), 1490 nM. Further, the EC50 in the data set on SUDHL5 [3] (setting [12]) and in the data set with SUDHL10 [4] (setting [13]) was 590 nM each time.

`Cc1c2c(nn1C)COCCCCn1c(C(=O)O)c(CCCOc3cccc4cc(F)ccc34)c3ccc(Cl)c-2c31` (single isomer, unassigned; enantiomer 1) [Example 16, (−)-4-chloro-7-{3-[(6-fluoronaphthalen-1-yl)oxy]propyl}-2,3-dimethyl-2,10,11,12,13,15-hexahydropyrazolo[4′,3′:9,10][1,6]oxazacycloundecino[8,7,6-hi]indole-8-carboxylic Acid (Enantiomer 1)]: the IC50 worked out at 660 nM in the data set with SUDHL10 [1] (setting [10]); 210 nM with SUDHL5 [5] (Homo sapiens, SU-DHL-5, 72 h); 220 nM in the data set with SUDHL5 [2] (setting [11]); 524 nM in the data set on MV-4-11 (Homo sapiens, MV4-11, 72 h); 519 nM in the data set on AMO-1 (Homo sapiens, AMO1, 72 h); 1250 nM in the data set on HMC-1-8. Moreover, the results for the EC50 in the data set on SUDHL5 [3] (setting [12]) and in the data set with SUDHL10 [4] (setting [13]) were 150 nM and 380 nM, respectively.

As for `CCc1nn(CCN2CCOCC2)c2c1-c1c(Cl)ccc3c(CCCOc4cccc5ccccc45)c(C(=O)O)n(c13)CCCCN(C)C2` (single isomer, unassigned; enantiomer 1) [Example 46, 4-chloro-3-ethyl-14-methyl-1-[2-(morpholin-4-yl)ethyl]-7-{3-[(naphthalen-1-yl)oxy]propyl}-10,11,12,13,14,15-hexahydro-1H-pyrazolo[3′,4′:8,9][1,6]diazacycloundecino[10,11,1-hi]indole-8-carboxylic Acid (Enantiomer 1)], the 50% inhibitory concentration (IC50) in the data set with SUDHL10 [1] (setting [6]) was 300 nM; in the data set on SUDHL5 [5] (72 hours) it was 200 nM; with SUDHL5 [2] (setting [7]), 180 nM; in the data set with MV-4-11 (72 hours), 490 nM; in the data set on AMO-1 (72 hours) it was 180 nM; in the data set with HMC-1-8 it was 819 nM. Also, the EC50 is 160 nM in the data set on SUDHL5 [3] (setting [8]) and 400 nM in the data set on SUDHL10 [4] (setting [9]).

For orientation: IC50 means the concentration that inhibits the measured activity by half. For orientation: EC50 means the concentration that produces a half-maximal response.
